# Source: patent US20190008870A1, “COMPOSITIONS AND METHODS FOR LIPID METABOLISM DISORDER” (JANSFAT BIOTECHNOLOGY CO., LTD., priority 2016, published 2019)
# Tests used:
# ROCK II [1] = assay: HFD-induced ROCK II expression in liver; type: in vivo, mice; conditions: for ROCK II: HFD mice, CTL 100
# Description: (§1) In the experiment, C57BL/6J male mice (21-22 g), after fasting, were fed an HFD as a model of hyperlipidemia for 8 weeks. During the 2 month experiments, mice fasted for one night before the experiment was changed from a standard diet (STD) to an HFD and then the mice were randomly divided into 13 groups, including a protection group, 2 control and 10 treatment groups. Six mice were used in each group. […] Liver from the protection group supplemented with KMUP-1 HCl (1 mg/kg/day) were used to determine the HMG CoA reductase expression. Each group of mice had free access to drinking water from week 1 to week 14. Tap water was used to normalize mineral nutrition.
# For the expression of SR-B1, HMGR, PPARγ and ROCK II, isolated liver tissues were cut into small chips and placed into an extraction buffer (Tris 10 mM, pH 7.0, NaCl 140 mM, PMSF 2 mM, DTT 5 mM, NP-40 0.5%, pepstatin A 0.05 mM and leupeptin 0.2 mM) for hepatic protein extraction, and centrifuged at 20,000×g for 30 minutes. The obtained protein extract was boiled to a ratio of 4:1 with a sample buffer (Tris 100 mM, pH 6.8, glycerol 20%, SDS 4% and bromophenol blue 0.2%). Electrophoresis was performed using 10% SDS-polyacrylamide gel (1 hour, 100 V, 40 mA, 20 μg protein per lane).
# Separated proteins, after 3 repeated centrifugations to discard up-layer tissue lipid in purity, were transferred to PVDF membranes treated with 5% fat-free milk powder to block the nonspecific IgGs (90 minutes, 100 V) and incubated for 1 hour with specific protein antibody. The blot was then incubated with anti-mouse or anti-goat IgG linked to alkaline phosphatase (1:1000) for 1 hour.
# mice fed with HFD = assay: Serum and liver lipid levels of mice fed with HFD; type: in vivo
# Description: as §1, with “During” for “In the experiment, C57BL/6J male mice (21-22 g), after fasting, were fed an HFD as a model of hyperlipidemia for 8 weeks. During”
# Within 2 months, the 3 day food intake average for each animal was measured. The weight gain and plasma lipid levels of each group were determined and compared to the non-treatment control group. […] Agents used in the assays were obtained from Merck & Co. (Kenilworth, N.J., U.S.A.). Triglyceride (TG), total cholesterol, HDL cholesterol and LDL cholesterol in mouse serum were measured by methods used in the clinic. To measure the hepatic Triglyceride, isolated liver were cut into small chips.
# [2] = target: T1, Human recombinant HMG CoA reductase (Homo sapiens, UniProt P04035); assay: HMG CoA reductase activity and [14C]mevalonate formation; type: biochemical
# T1 construct: purchased Sigma-Aldrich H7039; host or cells: E. coli
# Description: Human recombinant HMG CoA reductase expressed in E. coli (H7039, Sigma-Aldrich, MO, U.S.A.) was used. Human recombinant HMG-CoA reductase, examined by SDS-PAGE to be ≥90% in purity, 2-8 units/mg protein in activity and ˜76 kDa in molecular weight (H7039, Sigma-Aldrich, St. Louis, Mo. U.S.A.), was used for determining the formation of [^14C]mevalonate. KMUP-1 and targeted drugs were pre-incubated with 35 ng/ml enzyme in phosphate buffer pH 7.5 for 15 minutes at 37° C. The reaction was initiated by the addition of 2.5 μM [^14C]HMG-CoA for another 20 minutes incubation period and terminated by further addition of 1 N HCl. An aliquot was removed by column and counted to determine the amount of [^14C]mevalonate formed (Ricera® Co. Ltd., Taipei, Taiwan).
# ROCK II [3] = assay: ROCK II expression in HepG2 cells; type: cell-based
# Description: The HepG2 hepatoma cell line was purchased from the American Type Culture Collection (ATCC, Manassas, Va., U.S.A.). Cells were cultured in Dulbecco's Modified Eagle's Medium (DMEM). […] Then the targeted drugs solution was incubated with the cells for 24 hours, followed by protein extraction. […] HepG2 cells were treated with various concentrations of targeted drugs for 24 hours. Reactions were terminated by washing twice with cold PBS, and the cells were then harvested. Proteins in the whole-cell lysate were homogenized in an ice-cold lysis buffer and a protease inhibitor (Sigma-Aldrich, St. Louis, Mo., U.S.A.). The homogenate was centrifuged at 90,000×g for 15 minutes at 4° C., and supernatant was recovered as the total cellular protein. Cytosolic and membrane fractions of HepG2 cells were prepared using a CNM (Cytosol Nuclear Membrane) compartmental protein extraction kit (BioChain Institute Inc., Hayward, Calif., U.S.A.) according to the manufacturer's instructions. All of the fractionated protein solutions were stored at -80° C. until analysis. To measure the expression levels of proteins by drugs, the total cell protein was extracted after incubation with treatments for 24 hours and then Western blotting analysis was performed as described previously.
# [4] = 10^−5 M, 24 hours, Control 100, Vehicle 88
# T1 sequence (P04035 426-888 limits assumed): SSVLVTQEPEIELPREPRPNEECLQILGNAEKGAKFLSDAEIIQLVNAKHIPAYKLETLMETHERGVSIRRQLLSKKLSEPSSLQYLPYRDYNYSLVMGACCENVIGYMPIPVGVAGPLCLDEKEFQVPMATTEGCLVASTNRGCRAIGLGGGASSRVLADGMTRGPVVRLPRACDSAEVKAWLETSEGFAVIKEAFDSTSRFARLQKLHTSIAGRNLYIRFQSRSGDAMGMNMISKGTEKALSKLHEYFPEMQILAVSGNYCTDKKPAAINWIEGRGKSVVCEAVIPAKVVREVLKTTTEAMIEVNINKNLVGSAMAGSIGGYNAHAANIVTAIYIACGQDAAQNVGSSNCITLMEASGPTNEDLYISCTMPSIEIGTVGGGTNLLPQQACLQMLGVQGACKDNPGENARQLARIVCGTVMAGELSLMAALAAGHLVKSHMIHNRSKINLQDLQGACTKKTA
structure (smiles),measurement,setting,value
"CCC(C)(C)C(=O)O[C@H]1C[C@@H](C)C=C2C=C[C@H](C)[C@H](CC[C@@H]3C[C@@H](O)CC(=O)O3)[C@H]21 [Simva, Simvastatin, reference compound]",ROCKII,"ROCK II [1]; Simva 5 mg/kg, CTL 100 (Table 9)",43%
same,HDL chol.,mice fed with HFD; Dose 5 mg/kg (Table 2),108.4 ± 1.3 mg/dL
same,LDL chol.,mice fed with HFD; Dose 5 mg/kg (Table 2),17.3 ± 1.4 mg/dL
same,TG,mice fed with HFD; Dose 5 mg/kg (Table 2),81.2 ± 4.4 mg/dL
same,Tot. chol.,mice fed with HFD; Dose 5 mg/kg (Table 2),129.7 ± 1.4 mg/dL
same,inhibition of [14C]mevalonate formation,[2]; compared to the vehicle group,86.6±4.2%
same,ROCK II expression,ROCK II [3]; [4],45
same,ROCKII,ROCK II [3]; GGPP (10 μM) + drug 10^−5 M,210%
same,ROCKII,ROCK II [3]; GGPP (10 μM) + drug 10^−6 M,220%
same,ROCKII,ROCK II [3]; GGPP (10 μM) + drug 10^−7 M,200%
same,ROCKII,ROCK II [3]; GGPP (10 μM) + drug 10^−8 M,214%
same,ROCKII,ROCK II [3]; GGPP (10 μM) + drug 10^−9 M,210%
"Cn1c(=O)c2c(ncn2CCN2CCN(c3ccccc3Cl)CC2)n(C)c1=O [KMUP-1, 7-[2-[4-(2-chlorophenyl)piperazinyl]ethyl]-1,3-dimethylxanthine]",ROCK II,ROCK II [1]; 1 mg/kg,30%
same,ROCK II,ROCK II [1]; 2.5 mg/kg,25%
same,ROCK II,ROCK II [1]; 5 mg/kg,10%
same,HDL cholesterol,mice fed with HFD; 2.5 mg/kg p.o.,103.6 ± 4.2 mg/dL
same,LDL cholesterol,mice fed with HFD; 2.5 mg/kg p.o.,14.2 ± 1.4 mg/dL
same,TG in serum (Triacylglycerol),mice fed with HFD; 2.5 mg/kg p.o.,74.5 ± 5.1 mg/dL
same,TG of liver,mice fed with HFD; 2.5 mg/kg p.o.,28.4 ± 3.6 mg/dL
same,Tot. chol. (total cholesterol),mice fed with HFD; 2.5 mg/kg p.o.,133.0 ± 5.1 mg/dL
same,HDL cholesterol,mice fed with HFD; 5 mg/kg p.o.,118.3 ± 5.7 mg/dL
same,LDL cholesterol,mice fed with HFD; 5 mg/kg p.o.,14.2 ± 2.2 mg/dL
same,TG in serum (Triacylglycerol),mice fed with HFD; 5 mg/kg p.o.,72.7 ± 4.7 mg/dL
same,TG of liver,mice fed with HFD; 5 mg/kg p.o.,26.12 ± 3.1 mg/dL
same,Tot. chol. (total cholesterol),mice fed with HFD; 5 mg/kg p.o.,125.5 ± 9.8 mg/dL
same,HDL chol.,mice fed with HFD; Dose 2.5 mg/kg (Table 2),103.6 ± 4.2 mg/dL
same,LDL chol.,mice fed with HFD; Dose 2.5 mg/kg (Table 2),14.2 ± 1.4 mg/dL
same,TG,mice fed with HFD; Dose 2.5 mg/kg (Table 2),74.5 ± 5.1 mg/dL
same,Tot. chol.,mice fed with HFD; Dose 2.5 mg/kg (Table 2),133 ± 5.1 mg/dL
same,HDL chol.,mice fed with HFD; Dose 5 mg/kg (Table 2),118.3 ± 5.7 mg/dL
same,LDL chol.,mice fed with HFD; Dose 5 mg/kg (Table 2),14.2 ± 2.2 mg/dL
same,TG,mice fed with HFD; Dose 5 mg/kg (Table 2),72.67 ± 4.7 mg/dL
same,Tot. chol.,mice fed with HFD; Dose 5 mg/kg (Table 2),125.5 ± 9.8 mg/dL
same,HFD-induced hypercholesterolemia,mice fed with HFD; supplementation,significantly improved
same,[14C]mevalonate formation,[2]; 10 μM,could not reduce
same,ROCK II expression,ROCK II [3]; [4],41
same,ROCKII,ROCK II [3]; FPP (10 μM) + drug 10^−5 M,60%
same,ROCKII,ROCK II [3]; FPP (10 μM) + drug 10^−6 M,80%
same,ROCKII,ROCK II [3]; FPP (10 μM) + drug 10^−7 M,88%
same,ROCKII,ROCK II [3]; FPP (10 μM) + drug 10^−8 M,86%
same,ROCKII,ROCK II [3]; FPP (10 μM) + drug 10^−9 M,84%
same,ROCKII,ROCK II [3]; GGPP (10 μM) + drug 10^−5 M,40%
same,ROCKII,ROCK II [3]; GGPP (10 μM) + drug 10^−6 M,60%
same,ROCKII,ROCK II [3]; GGPP (10 μM) + drug 10^−7 M,108%
same,ROCKII,ROCK II [3]; GGPP (10 μM) + drug 10^−8 M,120%
same,ROCKII,ROCK II [3]; GGPP (10 μM) + drug 10^−9 M,112%
same,ROCK II expression,"ROCK II [3]; Rp-8-pCPT-cGMPS + KMUP-1 (10 μM), Control 100",170
